According to ChEMBL document CHEMBL1201861, “Genomics of Drug Sensitity in Cancer screening data, Wellcome Trust Sanger Institute”:

Assays:
Assay in all cases: cells
Calu-3 = format: functional, cell-based, Homo sapiens; settings: Homo sapiens, Calu-3;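 also: growth inhibition of human Calu-3 cells, determined with a cell viability assay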
Description: SANGER: Inhibition of human Calu-3 cell growth in a cell viability assay.

D-542MG = format: functional, cell-based, Homo sapiens; settings: Homo sapiens, D-542MG
Description: SANGER: Inhibition of human D-542MG cell growth in a cell viability assay.

DBTRG-05MG = format: functional, cell-based, Homo sapiens; settings: Homo sapiens, DBTRG-05MG;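 also: cell viability assay measuring growth inhibition of human DBTRG-05MG cells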
Description: SANGER: Inhibition of human DBTRG-05MG cell growth in a cell viability assay.

DMS-273 = format: functional, cell-based, Homo sapiens; settings: Homo sapiens, DMS-273
Description: SANGER: Inhibition of human DMS-273 cell growth in a cell viability assay.

Detroit 562 = format: functional, cell-based, Homo sapiens; settings: Homo sapiens, Detroit 562;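 also: growth inhibition of human Detroit 562 cells, read out by a cell viability assay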
Description: SANGER: Inhibition of human Detroit562 cell growth in a cell viability assay.

HCC1569 = format: functional, cell-based, Homo sapiens; settings: Homo sapiens, HCC1569;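 also: growth inhibition of human HCC1569 cells, read out with a cell viability assay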
Description: SANGER: Inhibition of human HCC1569 cell growth in a cell viability assay.

HCE-4 = format: functional, cell-based, Homo sapiens; settings: Homo sapiens, HCE-4;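 also: cell viability assay measuring inhibition of growth in the human HCE-4 cell line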
Description: SANGER: Inhibition of human HCE-4 cell growth in a cell viability assay.

HOS = format: functional, cell-based, Homo sapiens; settings: Homo sapiens, HOS;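 also: growth inhibition of human HOS cells, read out with a cell viability assay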
Description: SANGER: Inhibition of human HOS cell growth in a cell viability assay.

HSC-2 = format: functional, cell-based, Homo sapiens; settings: Homo sapiens, HSC-2;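 also: growth inhibition of human HSC-2 cells, read out by a cell viability assay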
Description: SANGER: Inhibition of human HSC-2 cell growth in a cell viability assay.

HT-1376 = format: functional, cell-based, Homo sapiens; settings: Homo sapiens, HT-1376
Description: SANGER: Inhibition of human HT-1376 cell growth in a cell viability assay.

HT-3 = format: functional, cell-based, Homo sapiens; settings: Homo sapiens, HT-3;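 also: growth inhibition measured with a cell viability readout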
Description: SANGER: Inhibition of human HT-3 cell growth in a cell viability assay.

HuO9 = format: functional, cell-based, Homo sapiens; settings: Homo sapiens, HuO9;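 also: growth inhibition of HuO9 cells, read out with a cell viability assay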
Description: SANGER: Inhibition of human HuO9 cell growth in a cell viability assay.

KOSC-2 = format: functional, cell-based, Homo sapiens; settings: Homo sapiens, KOSC-2;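 also: growth inhibition of KOSC-2 cells, read out by a cell viability assay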
Description: SANGER: Inhibition of human KOSC-2 cell growth in a cell viability assay.

KU812 cell line = format: functional, cell-based, Homo sapiens; settings: Homo sapiens, KU812;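 also: growth inhibition of KU812 cells, read out with a cell viability assay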
Description: SANGER: Inhibition of human KU812 cell growth in a cell viability assay.

LNCaP-Clone-FGC = format: functional, cell-based, Homo sapiens; settings: Homo sapiens, LNCaP-Clone-FGC
Description: SANGER: Inhibition of human LNCaP-Clone-FGC cell growth in a cell viability assay.

LS-411N = format: functional, cell-based, Homo sapiens; settings: Homo sapiens, LS-411N
LXF-289 cell line = format: functional, cell-based, Homo sapiens; settings: Homo sapiens, LXF-289
Description: SANGER: Inhibition of human LXF-289 cell growth in a cell viability assay.

MC116 = format: functional, cell-based, Homo sapiens; settings: Homo sapiens, MC116;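 also: growth inhibition of MC116 cells, read out with a cell viability assay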
Description: SANGER: Inhibition of human MC116 cell growth in a cell viability assay.

ME-180 = format: functional, cell-based, Homo sapiens; settings: Homo sapiens, ME-180;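 also: cell viability assay measuring growth inhibition of ME-180 cells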
Description: SANGER: Inhibition of human ME-180 cell growth in a cell viability assay.

MHH-ES-1 = format: functional, cell-based, Homo sapiens; settings: Homo sapiens, MHH-ES-1;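 also: cell growth inhibition measured by a cell viability assay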
Description: SANGER: Inhibition of human MHH-ES-1 cell growth in a cell viability assay.

MPP-89 = format: functional, cell-based, Homo sapiens; settings: Homo sapiens, MPP-89;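 also: growth inhibition of human MPP-89 cells, read out with a cell viability assay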
Description: SANGER: Inhibition of human MPP-89 cell growth in a cell viability assay.

MSTO-211H = format: functional, cell-based, Homo sapiens; settings: Homo sapiens, MSTO-211H
Description: SANGER: Inhibition of human MSTO-211H cell growth in a cell viability assay.

MZ2-MEL = format: functional, cell-based, Homo sapiens; settings: Homo sapiens, MZ2-MEL;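 also: growth inhibition of MZ2-MEL cells read out with a cell viability assay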
Description: SANGER: Inhibition of human MZ2-MEL cell growth in a cell viability assay.

NCI-H1581 = format: functional, cell-based, Homo sapiens; settings: Homo sapiens, NCI-H1581;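 also: cell growth inhibition read out by a viability assay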
Description: SANGER: Inhibition of human NCI-H1581 cell growth in a cell viability assay.

NCI-H2087 = format: functional, cell-based, Homo sapiens; settings: Homo sapiens, NCI-H2087;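 also: growth inhibition determined with a cell viability readout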
Description: SANGER: Inhibition of human NCI-H2087 cell growth in a cell viability assay.

NCI-H226 = format: functional, cell-based, Homo sapiens; settings: Homo sapiens, NCI-H226;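 also: cell viability read-out used to gauge growth inhibition of the cells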
Description: SANGER: Inhibition of human NCI-H226 cell growth in a cell viability assay.

NCI-H2342 = format: functional, cell-based, Homo sapiens; settings: Homo sapiens, NCI-H2342;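 also: growth inhibition of the cancer cell line, determined with a cell viability assay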
Description: SANGER: Inhibition of human NCI-H2342 cell growth in a cell viability assay.

NCI-H720 = format: functional, cell-based, Homo sapiens; settings: Homo sapiens, NCI-H720;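 also: growth inhibition of human NCI-H720 cells determined by a cell viability assay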
Description: SANGER: Inhibition of human NCI-H720 cell growth in a cell viability assay.

OE19 = format: functional, cell-based, Homo sapiens; settings: Homo sapiens, OE19;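 also: growth inhibition of OE19 cells, measured through a cell viability read-out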
Description: SANGER: Inhibition of human OE19 cell growth in a cell viability assay.

OS-RC-2 = format: functional, cell-based, Homo sapiens; settings: Homo sapiens, OS-RC-2;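 also: growth inhibition of human OS-RC-2 cells, measured by a cell viability assay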
Description: SANGER: Inhibition of human OS-RC-2 cell growth in a cell viability assay.

OVCAR-8 = format: functional, cell-based, Homo sapiens; settings: Homo sapiens, OVCAR-8;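 also: growth inhibition of human OVCAR-8 cells, read out by a cell viability assay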
Description: SANGER: Inhibition of human OVCAR-8 cell growth in a cell viability assay.

PANC-03-27 = format: functional, cell-based, Homo sapiens; settings: Homo sapiens, PANC-03-27
Description: SANGER: Inhibition of human PANC-03-27 cell growth in a cell viability assay.

SJRH30 = format: functional, cell-based, Homo sapiens; settings: Homo sapiens, SJRH30;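 also: growth inhibition of human SJRH30 cells, read out with a cell viability assay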
Description: SANGER: Inhibition of human SJRH30 cell growth in a cell viability assay.

SK-MEL-24 = format: functional, cell-based, Homo sapiens; settings: Homo sapiens, SK-MEL-24;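 also: growth inhibition read out by a cell viability assay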
Description: SANGER: Inhibition of human SK-MEL-24 cell growth in a cell viability assay.

SK-MEL3 = format: functional, cell-based, Homo sapiens, SK-MEL-3; settings: Homo sapiens, SK-MEL3;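 also: growth inhibition of human SK-MEL-3 cells, read out with a cell viability assay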
Description: SANGER: Inhibition of human SK-MEL-3 cell growth in a cell viability assay.

SK-N-DZ = format: functional, cell-based, Homo sapiens; settings: Homo sapiens, SK-N-DZ;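 also: growth inhibition of the cancer cell line, read out through a viability assay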
Description: SANGER: Inhibition of human SK-N-DZ cell growth in a cell viability assay.

CWR22R = format: functional, cell-based, Homo sapiens; settings: Homo sapiens, 22Rv1;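 also: growth inhibition of 22Rv1 cells, read out with a cell viability assay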
Description: SANGER: Inhibition of human 22RV1 cell growth in a cell viability assay.

639-V = format: functional, cell-based, Homo sapiens; settings: Homo sapiens, 639-V;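 also: growth inhibition of 639-V cells, read out with a cell viability assay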
Description: SANGER: Inhibition of human 639-V cell growth in a cell viability assay.

A2780 = format: functional, cell-based, Homo sapiens; settings: Homo sapiens, A2780;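 also: growth inhibition of A2780 cells, read out with a cell viability assay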
Description: SANGER: Inhibition of human A2780 cell growth in a cell viability assay.

A-375 = format: functional, cell-based, Homo sapiens; settings: Homo sapiens, A-375;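 also: growth inhibition of A375 cells, read out with a cell viability assay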
Description: SANGER: Inhibition of human A375 cell growth in a cell viability assay.

CAL-62 = format: functional, cell-based, Homo sapiens; settings: Homo sapiens, CAL-62;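 also: growth inhibition of CAL-62 cells, read out with a cell viability assay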
Description: SANGER: Inhibition of human CAL-62 cell growth in a cell viability assay.

UMUC3 = format: functional, cell-based, Homo sapiens; settings: Homo sapiens, UMUC3;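 also: growth inhibition of human UM-UC-3 cells, read out with a cell viability assay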
Description: SANGER: Inhibition of human UM-UC-3 cell growth in a cell viability assay.

VMRC-RCZ = format: functional, cell-based, Homo sapiens; settings: Homo sapiens, VMRC-RCZ;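 also: growth inhibition measured with a cell viability assay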
Description: SANGER: Inhibition of human VMRC-RCZ cell growth in a cell viability assay.

LB996-RCC = format: functional, cell-based, Homo sapiens; settings: Homo sapiens, LB996-RCC
Description: SANGER: Inhibition of human LB996-RCC cell growth in a cell viability assay.

CO[C@H]1C[C@@H]2CC[C@@H](C)[C@@](O)(O2)C(=O)C(=O)N2CCCC[C@H]2C(=O)O[C@H]([C@H](C)C[C@@H]2CC[C@@H](OC(=O)C(C)(CO)CO)[C@H](OC)C2)CC(=O)[C@H](C)/C=C(\C)[C@@H](O)[C@@H](OC)C(=O)[C@H](C)C[C@H](C)/C=C/C=C/C=C/1C [TEMSIROLIMUS]
IC50 (Calu-3): > 0.2 µM | IC50 (D-542MG): 77.9 nM | IC50 (DBTRG-05MG): > 0.2 µM | IC50 (DMS-273): > 0.2 µM | IC50 (Detroit 562): > 200 nM | IC50 (HCC1569): > 0.2 µM | IC50 (HCE-4): > 0.2 µM | IC50 (HOS): 145 nM | IC50 (HSC-2): 200 nM | IC50 (HT-1376): > 0.2 µM | IC50 (HT-3): > 0.2 µM | IC50 (HuO9): 177 nM | IC50 (KOSC-2): 167 nM | IC50 (KU812 cell line): > 200 nM | IC50 (LNCaP-Clone-FGC): 184 nM | IC50 (LS-411N): > 0.2 µM | IC50 (LXF-289 cell line): 148 nM | IC50 (MC116): 25.5 nM | IC50 (ME-180): 109 nM | IC50 (MHH-ES-1): 91.9 nM | IC50 (MPP-89): > 0.2 µM | IC50 (MSTO-211H): 60.1 nM | IC50 (MZ2-MEL): 56.9 nM | IC50 (NCI-H1581): > 200 nM | IC50 (NCI-H2087): > 0.2 µM | IC50 (NCI-H226): > 0.2 µM | IC50 (NCI-H2342): > 0.2 µM | IC50 (NCI-H720): 9.62 nM | IC50 (OE19): > 0.2 µM | IC50 (OS-RC-2): 17 nM | IC50 (OVCAR-8): 136 nM | IC50 (PANC-03-27): > 0.2 µM | IC50 (SJRH30): > 0.2 µM | IC50 (SK-MEL-24): 77 nM | IC50 (SK-MEL3): > 0.2 µM | IC50 (SK-N-DZ): > 0.2 µM | IC50 (CWR22R): > 0.2 µM | IC50 (639-V): > 0.2 µM | IC50 (A2780): 5.88 nM | IC50 (A-375): > 0.2 µM | IC50 (CAL-62): 117 nM | IC50 (UMUC3): 69.2 nM | IC50 (VMRC-RCZ): > 0.2 µM

CS(=O)(=O)c1ccc(C(=O)Nc2ccc(Cl)c(-c3ccccn3)c2)c(Cl)c1 [VISMODEGIB]
IC50 (Calu-3): > 10 µM | IC50 (D-542MG): 1870 nM | IC50 (DBTRG-05MG): > 10 µM | IC50 (DMS-273): > 10 µM | IC50 (Detroit 562): > 10000 nM | IC50 (HCC1569): > 10 µM | IC50 (HCE-4): > 10 µM | IC50 (HOS): > 10000 nM | IC50 (HSC-2): > 10000 nM | IC50 (HT-1376): > 10 µM | IC50 (HT-3): > 10 µM | IC50 (HuO9): > 10000 nM | IC50 (KOSC-2): > 10000 nM | IC50 (LNCaP-Clone-FGC): > 10000 nM | IC50 (LS-411N): > 10 µM | IC50 (LXF-289 cell line): > 10000 nM | IC50 (MC116): > 10000 nM | IC50 (ME-180): > 10000 nM | IC50 (MHH-ES-1): > 10000 nM | IC50 (MPP-89): > 10 µM | IC50 (MSTO-211H): > 10000 nM | IC50 (MZ2-MEL): > 10000 nM | IC50 (NCI-H1581): > 10000 nM | IC50 (NCI-H2087): > 10 µM | IC50 (NCI-H226): > 10 µM | IC50 (NCI-H2342): > 10 µM | IC50 (OE19): > 10 µM | IC50 (OS-RC-2): > 10000 nM | IC50 (OVCAR-8): > 10000 nM | IC50 (PANC-03-27): > 10 µM | IC50 (SJRH30): > 10 µM | IC50 (SK-MEL-24): > 10000 nM | IC50 (SK-MEL3): > 10 µM | IC50 (SK-N-DZ): > 10 µM | IC50 (CWR22R): > 10 µM | IC50 (639-V): > 10 µM | IC50 (A2780): > 10000 nM | IC50 (A-375): > 10 µM | IC50 (CAL-62): > 10000 nM | IC50 (UMUC3): > 10000 nM | IC50 (VMRC-RCZ): > 10 µM

COc1cc2c(Nc3ccc(NC(=O)c4ccccc4)cc3)ncnc2cc1OCCCN1CCOCC1
IC50 (Calu-3): > 4 µM | IC50 (DBTRG-05MG): > 4 µM | IC50 (DMS-273): > 4 µM | IC50 (Detroit 562): 1730 nM | IC50 (HCC1569): > 4 µM | IC50 (HCE-4): > 4 µM | IC50 (HOS): > 4000 nM | IC50 (HSC-2): > 4000 nM | IC50 (HT-1376): > 4 µM | IC50 (HT-3): > 4 µM | IC50 (HuO9): > 4000 nM | IC50 (KOSC-2): > 4000 nM | IC50 (KU812 cell line): > 4000 nM | IC50 (LB996-RCC): > 4 µM | IC50 (LNCaP-Clone-FGC): > 4000 nM | IC50 (LS-411N): > 4 µM | IC50 (LXF-289 cell line): 2540 nM | IC50 (MC116): > 4000 nM | IC50 (ME-180): > 4000 nM | IC50 (MHH-ES-1): 2130 nM | IC50 (MPP-89): > 4 µM | IC50 (MSTO-211H): > 4000 nM | IC50 (MZ2-MEL): > 4000 nM | IC50 (NCI-H1581): 1680 nM | IC50 (NCI-H2087): > 4 µM | IC50 (NCI-H226): > 4 µM | IC50 (NCI-H2342): > 4 µM | IC50 (NCI-H720): 1210 nM | IC50 (OE19): > 4 µM | IC50 (OS-RC-2): > 4000 nM | IC50 (OVCAR-8): > 4000 nM | IC50 (PANC-03-27): > 4 µM | IC50 (SJRH30): > 4 µM | IC50 (SK-MEL-24): > 4000 nM | IC50 (SK-MEL3): > 4 µM | IC50 (SK-N-DZ): > 4 µM | IC50 (CWR22R): > 4 µM | IC50 (639-V): > 4 µM | IC50 (A2780): > 4000 nM | IC50 (A-375): 3.85 µM | IC50 (CAL-62): > 4000 nM | IC50 (UMUC3): > 4000 nM | IC50 (VMRC-RCZ): > 4 µM
